{"source": "patent US20050009792A1", "about": "“(20S)-1alpha-hydroxy-2-methylene-19-nor-vitamin D3 and its uses” (priority 2003, published 2005)", "key": {"[1]": {"molecular_target": "T1, vitamin D pig intestinal nuclear receptor (Sus scrofa, UniProt A3RGC1)", "T1 construct": "from tissue; host or cells: pig intestine (nuclear receptor preparation)", "T1 sequence (A3RGC1 1-427)": "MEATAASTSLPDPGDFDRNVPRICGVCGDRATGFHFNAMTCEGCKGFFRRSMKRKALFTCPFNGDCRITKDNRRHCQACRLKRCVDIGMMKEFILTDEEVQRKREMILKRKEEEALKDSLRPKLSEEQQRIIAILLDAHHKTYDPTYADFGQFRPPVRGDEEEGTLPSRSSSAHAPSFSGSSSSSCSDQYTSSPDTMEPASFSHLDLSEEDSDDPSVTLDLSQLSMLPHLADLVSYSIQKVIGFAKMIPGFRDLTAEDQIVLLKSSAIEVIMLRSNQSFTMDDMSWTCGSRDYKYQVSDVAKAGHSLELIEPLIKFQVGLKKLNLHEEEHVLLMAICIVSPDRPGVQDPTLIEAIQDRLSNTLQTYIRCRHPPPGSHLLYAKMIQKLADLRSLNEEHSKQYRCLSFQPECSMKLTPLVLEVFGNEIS", "conditions": "Ostrem et al. J. Biol. Chem. 262, 14164-14171, 1987; cited from earlier work"}, "[2]": {"molecular_target": "T1, vitamin D pig intestinal nuclear receptor", "assay": "Competitive binding of [3H]-1,25-(OH)2-D3 to the porcine intestinal vitamin D receptor", "experimental": "FIG. 1 is a graph illustrating the relative activity of (20S)-1α-hydroxy-2-methylene-19-nor-vitamin D3 and 1α,25-dihydroxyvitamin D3 to compete for binding of [^3H]-1,25-(OH)2-D3 to the vitamin D pig intestinal nuclear receptor; and\nCompetitive binding of the analog to the porcine intestinal receptor was carried out by the method described by Dame et al. (Biochemistry 25, 4523-4534, 1986)."}, "HL-60 cells": {"tested_on": "HL-60 cells", "assay": "Differentiation of HL-60 promyelocytes into monocytes", "type": "cell-based", "conditions": "FIG. 2", "experimental": "FIG. 2 is a graph illustrating the percent HL-60 cell differentiation as a function of the concentration of (20S)-1α-hydroxy-2-methylene-19-nor-vitamin D3 and of 1,25-dihydroxyvitamin D3\nThe differentiation of HL-60 promyelocytic into monocytes was determined as described by Ostrem et al (J. Biol. Chem. 262, 14164-14171, 1987)."}, "[3]": {"tested_on": "intestinal calcium transport", "assay": "Intestinal calcium transport in rats on low calcium diet", "type": "in vivo, Sprague-Dawley rats", "conditions": "for Ca transport S/M (mean ± SEM): daily for 7 days, male weanling rats, 0.02% Ca diet", "experimental": "Intestinal calcium transport was carried out as described by Penman et al (Biochemistry 29, 190-196,1990).\n(§1) Male, weanling Sprague-Dawley rats were placed on Diet 11 (0.47% Ca) diet+AEK for 11 days, followed by Diet 11 (0.02% Ca)+AEK for 31 days. Dosing (i.p.) began 7 days prior to sacrifice. Doses were given on a daily basis, 24 hours apart. The first 10 cm of the intestine was collected for gut transport studies and serum was collected for bone Ca mobilization analysis."}, "[4]": {"tested_on": "bone calcium mobilization", "assay": "Serum calcium (bone calcium mobilization) in rats on low calcium diet", "type": "in vivo, Sprague-Dawley rats", "conditions": "for Serum Ca (mean ± SEM): daily for 7 days, male weanling rats, 0.02% Ca diet", "experimental": "as §1"}}, "data": [{"smiles": "C=C1/C(=C\\C=C2/CCC[C@]3(C)[C@@H]([C@H](C)CCCC(C)C)CC[C@@H]23)C[C@@H](O)C[C@@H]1O", "note": "[1α-hydroxyvitamin D3]", "values": [{"measurement": "decrease in binding activity resulting from lack of a 25-hydroxyl", "setting": "[1]", "value": 100, "unit": "fold"}]}, {"smiles": "C=C1[C@H](O)CC(=C/C=C2\\CCC[C@@]3(C)C2CCC3[C@@H](C)CCCC(C)C)C[C@H]1O", "note": "(stereo partly drawn) [(20S)-1α-(OH)-2-methylene-19-nor-D3, (20S)-1α-hydroxy-2-methylene-19-nor-vitamin D3]", "values": [{"measurement": "ability to bind the vitamin D receptor relative to 1,25-dihydroxyvitamin D3", "setting": "[2]; FIG. 1", "value": "only a little less activity than 1,25(OH)2D3"}, {"measurement": "ability to bind the vitamin D receptor relative to 1,25-dihydroxyvitamin D3", "setting": "[2]; FIG. 1, listed as 2-Methylene-19-nor-(20S)-1α-hydroxyvitamin D3", "value": "only one-tenth that of 1,25-dihydroxyvitamin D3"}, {"measurement": "potency on HL-60 differentiation relative to 1,25-(OH)2D3", "setting": "HL-60 cells; listed as (20S)-1α-Hydroxy-2-methylene-19-nor-vitamin D3", "value": "more active than 1,25-(OH)2D3"}, {"measurement": "potency on HL-60 differentiation relative to 1,25-(OH)2D3", "setting": "HL-60 cells; listed as (20S)-1α-hydroxy-2-methylene-19-nor-vitamin D3", "value": "more potent than 1,25-(OH)2D3"}, {"measurement": "Ca transport S/M (mean ± SEM)", "setting": "[3]; 130 pmol/day i.p.", "value": "10.1 ± 0.68"}, {"measurement": "Ca transport S/M (mean ± SEM)", "setting": "[3]; 260 pmol/day i.p.", "value": "10.0 ± 0.59"}, {"measurement": "activity in stimulating intestinal calcium transport relative to 1,25-(OH)2D3", "setting": "[3]; statement in words on Table 1", "value": "higher activity as compared to that of 1,25-(OH)2D3"}, {"measurement": "Serum Ca (mean ± SEM)", "setting": "[4]; 130 pmol/day i.p.", "value": "9.63 ± 0.12"}, {"measurement": "Serum Ca (mean ± SEM)", "setting": "[4]; 260 pmol/day i.p.", "value": "12.60 ± 0.54"}, {"measurement": "bone calcium mobilization activity relative to 1,25-(OH)2D3", "setting": "[4]; statement in words on Table 1", "value": "higher bone calcium mobilization activity, as compared to 1,25-(OH)2D3"}]}, {"smiles": "C=C1/C(=C\\C=C2/CCC[C@]3(C)[C@@H]([C@H](C)CCCC(C)(C)O)CC[C@@H]23)C[C@@H](O)C[C@@H]1O", "note": "[1α,25-(OH)2D3, 1α,25-dihydroxyvitamin D3, reference compound]", "values": [{"measurement": "Ca transport S/M (mean ± SEM)", "setting": "[3]; 260 pmol/day i.p.", "value": "7.7 ± 0.52"}, {"measurement": "Serum Ca (mean ± SEM)", "setting": "[4]; 260 pmol/day i.p.", "value": "6.25 ± 0.19"}]}]}
